Source: patent publication US7311918B2, “Rotavirus subunit vaccine” (Children's Hospital Medical Center, priority 1998, dated 2007)
Where “and” joins values, the source holds several entries; their conditions need not be identical. Equal values may be shown once. Entries after “also recorded” stand apart in the source; their conditions may differ.

The substances below were run on EDIM virus (murine rotavirus). Conditions: BALB/c mice, MBP::VP6 given intranasally with the adjuvant named.
Format: in vivo, BALB/c mice

Substance	Reduction in shedding [%]
QS-21 [reference compound]	43

Same assay, conditions: BALB/c mice, MBP::VP6 given orally with the adjuvant named

Substance	Reduction in shedding [%]
QS-21 [reference compound]	59

Same assay, conditions: mouse, in vivo

Substance	% Reduction in shedding [%]	Mean reduction in rotavirus shedding (protection)	Shedding per mouse per day	Shedding, Day 6	Shedding, Day 7
Peptide 11: one of 11 overlapping synthetic peptides (18 to 31 amino acids) of the CD region of VP6, Table 10 (TDLITNYSPSREDNLQRVFTVASIRSMLVK; Rotavirus VP6 fragment)	64	64%	80	30 and 29 and 41 and 36 and 23	0
Peptide 7: one of 11 overlapping synthetic peptides (18 to 31 amino acids) of the CD region of VP6, Table 10 (MTPAVTALFPNAQPFEHHATVGLTLRIDSA; Rotavirus VP6 fragment)	18	did not elicit protection	185	–	–
2: one of 11 overlapping synthetic peptides (18 to 31 amino acids) of the CD region of VP6, Table 10 (PDAERFSFPRVINSADGA; Rotavirus VP6 fragment) [Peptide 2]	–	70%	–	–	–
RLSFQLMRPPNMTP [Peptide 6-14]	–	comparable protection to that of peptide 6; also recorded: nearly complete protection	–	–	–
Peptide 9: one of 11 overlapping synthetic peptides (18 to 31 amino acids) of the CD region of VP6, Table 10 (VLADASETMLANVTSVRQEYAI; Rotavirus VP6 fragment)	0	did not elicit protection	275	–	–
Peptide 6: 25 mer synthetic peptide of the CD region of VP6 containing the 14-amino acid sequence RLSFQLMRPPNMTP, Table 10 (RNFDTIRLSFQLMRPPNMTPAVTAL; Rotavirus VP6 fragment)	88	88%	27	–	0
4: one of 11 overlapping synthetic peptides (18 to 31 amino acids) of the CD region of VP6, Table 10 (FNPVILRPNNVEVEFLLNGQVINTYQARF; Rotavirus VP6 fragment) [Peptide 4]	–	77%	–	–	–
Peptide 3: one of 11 overlapping synthetic peptides (18 to 31 amino acids) of the CD region of VP6, Table 10 (FSFPRVINSADGATTWYFNPVILRPNNVEV; Rotavirus VP6 fragment)	57	57%	96	–	0
Peptide 5: one of 11 overlapping synthetic peptides (18 to 31 amino acids) of the CD region of VP6, Table 10 (NGQVINTYQARFGTIVARNFDTIRLSFQLM; Rotavirus VP6 fragment)	0	did not elicit protection	341	–	–
Peptide 10: one of 11 overlapping synthetic peptides (18 to 31 amino acids) of the CD region of VP6, Table 10 (QEYAIPVGPVFPPGMNWTDLITNYSPSRED; Rotavirus VP6 fragment)	0	did not elicit protection	1825	–	0

The substances below were run on rotavirus (EDIM viral lysate). Conditions: mice immunized with MBP::VP6; intramuscularly with QS-21 versus intranasally with LT.
Format: in vivo, BALB/c mice

Substance	Serum IgG response
QS-21 [reference compound]	greater IgG response
